Reference: patent US9682114B2, “Plant extracts of Ptaeroxylon obliquum nand compounds having antimicrobial and antihelminthic activity” (UNIVERSITY OF PRETORIA, priority 2013, dated 2017)
Values after ≈ are worked out from the molar mass of the structure shown. Where two headings read alike, the source gives them in different places.

Tests used:
[1] = tested on: Candida albicans standard strain (ATCC 10231) and clinical isolates; assay: Broth micro-dilution assay, minimal inhibitory concentration (MIC); format: cell-based
in vitro = settings: LC50 (cytotoxicity)
Excerpt: The MTT assay was used to determine the cytotoxicity of dried acetone extracts of H. caffrum (leaves); P. obliquum (leaves); R. melanophloeos (leaves) and S. birrea (stem bark) reconstituted in dimethyl sulphoxide (DMSO) against Mouse fibroblast cells (obtained from the Department of Plant Science, Faculty of Natural and Agricultural Sciences, University of Pretoria, South Africa).
MTT (yellow) is reduced into a formazan (purple) by viable cells. The colour intensity of the formazan produced, which is directly proportional to the number of viable cells, is measured using a spectrophotometer (Mosmann, 1983; Shai, 2007).
Cells were maintained in minimal essential medium (MEM) (Highveld Biological, South Africa) supplemented with 0.1% gentamicin (Virbac) and 5% foetal calf serum (Adcock-lngram). […] Dried crude plant extracts (100 mg) were reconstituted in 1 ml of DMSO and serial 10-fold dilutions of each extract were prepared in growth medium. The growth medium on sub-confluent monolayer cells grown overnight in microtitre plates was removed and cells were exposed to 200 μl of the extracts at different concentrations and incubated again at 37° C. for 5 days. Viability of cells was determined using the tetrazolium-based colorimetric assay (MTT assay) described by Mossmann (1983). Before the addition of MTT, the extract-containing medium on the cells was replaced with fresh culture medium to exclude reduction of the tetrazolium compound by plant extracts. The assay is based on mitochondrial dehydrogenase activity which is assessed by the reductive cleavage of the tetrazolium salt MTT [3-(4.5-dimethylthiazolyl)2.5-diphenyltetrazolium bromide] due to the succinic dehydrogenase present in living cells to yield a purple formazan dye. The cells were incubated with 30 μl of 5 mg/ml MTT in phosphate-buffered saline (PBS) for four hours. Thereafter, medium was removed and cells washed with PBS. DMSO (50 μl) was added to the cells and absorbance was measured using a Versamax microplate reader at 570 nm. Berberine chloride (Sigma) was used as a positive control, wells containing only cells acted as the negative control and a solvent control was also included. The percentage cell viability following the addition of varying concentrations of the extracts in relation to controls was calculated. The LC50 values were calculated (using SoftMax Pro4.8 Software) as the concentration of plant extracts resulting in 50 percent reduction of absorbance compared to untreated cells. Tests were carried out in quadruplicate and each experiment was repeated three times.

[2] = tested on: Candida albicans standard strain (ATCC 10231) and clinical isolates; assay: Minimal fungicidal concentration (MFC) assay; format: cell-based; settings: for Subcidal concentration: concentration slightly below the MFC; for MFC: mean value
Protocol: Minimal Fungicidal Concentration Determination
The minimal fungicidal concentration (MFC) values were determined as the lowest concentration of the extract that inhibited 100 percent growth of C. albicans standard strain (ATCC 10231) and clinical isolates.
Minimal Fungicidal Concentration Assay
The assay was initiated by pouring fresh sterile water aliquots (100 μl) into the wells of a microtitre plate. […] 50 μl of a 0.2 mg/ml aqueous solution of INT (Sigma) was added to each well. These suspensions were re-incubated at 35° C. for 24 h.

[3] = tested on: Candida albicans standard strain (ATCC 10231) and clinical isolates; assay: Re-inoculation and re-incubation of MIC wells, cidal/static effects; format: cell-based; settings: for Growth after re-inoculation and re-incubation: 35° C. for 24 h
[4] = tested on: adhesion of C. albicans to human buccal epithelial cells; assay: Adhesion assay of C. albicans to human buccal epithelial cells (HBEC); format: cell-based, Candida albicans / human; settings: 1-h exposure
Protocol: Preparation of Yeast and Buccal Epithelial Cells
For preparation of yeast and buccal epithelial cells the methods of Taweechaisupapong et al., 2005 were used with some modification.
C. albicans standard strain (ATCC 10231) and clinical isolates were maintained on Sabouraud-dextrose agar and grown in the yeast phase in Sabouraud-dextrose broth for this study. The organisms were washed three times in normal saline (NSS) by centrifugation at 5000 rpm for 10 minutes and finally suspended in NSS to 4×10^7 cells/ml (MacFarlane standard 1).
Human buccal epithelial cells (HBEC) were collected from healthy individual subjects by gently scraping the cheek mucosa with a sterile wooden spatula. To minimize individual variations, HBEC from the twenty healthy individuals were pooled in 10 ml of sterile NSS (Sandin et al., 1987). The pooled HBEC suspension was washed three times in NSS by centrifugation at 5000 rpm for 10 minutes to eliminate debris and loosely attached micro-organisms. Washed epithelial cells were confirmed to have no attached yeast before the adherence test. The HBEC was then re-suspended in NSS to a concentration of 9×10^8 cells/ml (by haemocytometer) and used immediately for the adhesion assay. The cells were collected at the same time of day on each occasion to minimize any possible effect of diurnal variations of HBEC on yeast adherence.
Adhesion of C. albicans standard strain (ATCC 10231) and clinical isolates to HBEC was determined as follows: 0.2 ml of P. obliquum acetone leaf extract was serially two-fold diluted with normal saline (NSS) in tubes. Tubes containing 0.2 ml of amphotericin B and NSS served as positive and negative controls, respectively. 0.1 ml of HBEC and 0.1 ml of the yeast suspension prepared as described previously were added to each tube, mixed gently and incubated at 37° C. for 1 hour with gentle agitation. The suspension was then diluted in 1 ml of sterile NSS.
The cells were filtered through a 12 μm pore size polycarbonate filter (Millipore), and washed twice with 15 ml of sterile NSS to remove unattached fungi. Each filter was carefully removed with forceps and placed on a glass slide with the HBEC against the glass surface. After 30 s, the filter was gently removed; leaving the HBEC adhered to the glass slide. The slides were air-dried, fixed with methanol and stained with Gram's dye. The number of yeast cells adhering to 100 HBEC was determined by counting in a light microscopy (Nikon Trans microscope) at ×400 magnification and photographed with a Nixon digital camera DXM 1200 F.
The adhesion assay is a modification of a method previously described by Kimura and Pearsall (1978) and by Taweechaisupapong et al. (2005).
The numbers of fungi adhering per 100 human buccal epithelial cells were counted and the percentage reduction was determined as follows: crude plant extract concentration divided by the control (yeast+HBEC)×100 minus 100=% reduction.

Microsporum canis = settings: cited from earlier work
[5] = tested on: S. aureus, Salmonella typhi, Vibrio cholera, Escherichia coli, Shigella spp.; settings: cited from earlier work
Sporothrix schenckii = settings: cited from earlier work
Enterococcus feacalis = settings: cited from earlier work
[6] = tested on: monkey kidney (Vero) cells; settings: cited from earlier work
Candida albicans = settings: C. albicans; cited from earlier work
[7] = Candida albicans, C. albicans ATCC 10231, mean value, read-out: MIC
[8] = C. albicans 1051604, Amphotericin B 0.6 mg/ml
[9] = C. albicans ATCC 10231, Amphotericin B 0.11 mg/ml
[10] = C. albicans M0824, Amphotericin B 0.6 mg/ml

CC1(C)CC[C@]2(C)CC[C@]3(C)C(CCC4C5(C)CCC(O)C(C)(C)C5CC[C@]43C)C2C1 (stereo partly drawn) [Compound 1.2, β-amyrin]
MIC [1, 7]: 4 µg/mL (≈ 9.33 µM)

COc1ccc2cc3[n+](cc2c1OC)CCc1cc2c(cc1-3)OCO2 [Berberine, Berberine chloride, reference compound]
CC50 at 5 days (in vitro; mouse): 9.04 µg/mL

C[C@@H]1[C@H](O)[C@@H](C)/C=C/C=C/C=C/C=C/C=C/C=C/C=C/[C@H](O[C@@H]2O[C@H](C)[C@@H](O)[C@H](N)[C@@H]2O)C[C@@H]2O[C@](O)(C[C@@H](O)C[C@@H](O)[C@H](O)CC[C@@H](O)C[C@@H](O)CC(=O)O[C@H]1C)C[C@H](O)[C@H]2C(=O)O [Amphotericin B, reference compound]
Subcidal concentration ([2]; C. albicans 1051604): 0.06 | Subcidal concentration ([2]; C. albicans ATCC 10231): 0.11 | MFC ([2]; C. albicans ATCC 10231): 110 µg/mL (≈ 119 µM) | Subcidal concentration ([2]; C. albicans M0824): 0.06 | MFC ([2]; C. albicans clinical isolate 1051255): 230 µg/mL (≈ 249 µM) | MFC ([2]; C. albicans clinical isolate 1051604): 60 µg/mL (≈ 64.9 µM) | MFC ([2]; C. albicans clinical isolate 1051608): 110 µg/mL (≈ 119 µM) | MFC ([2]; C. albicans clinical isolate M0824): 110 µg/mL (≈ 119 µM) | MFC ([2]; C. albicans clinical isolate M0825): 60 µg/mL (≈ 64.9 µM) | MFC ([2]; C. albicans clinical isolate M0826): 110 µg/mL (≈ 119 µM) | Cidal/static effects ([3]; C. albicans 1051255): static | Growth after re-inoculation and re-incubation ([3]; C. albicans 1051255): yes | Cidal/static effects ([3]; C. albicans M0824): static | Growth after re-inoculation and re-incubation ([3]; C. albicans M0824): yes | Number of yeast per 100 HBEC [4, 8]: 10 | Reduction in adherence % [4, 8]: 95.05% | Number of yeast cells per 100 HBEC [4, 9]: 109 | Reduction in adherence % [4, 9]: 38.42% | Number of yeast per 100 HBEC [4, 10]: 12 | Reduction in adherence % [4, 10]: 93.41% | MIC ([1]; 12 h incubation, C. albicans 1051255): 30 µg/mL (≈ 32.5 µM) | MIC ([1]; 12 h incubation, C. albicans 1051604): 60 µg/mL (≈ 64.9 µM) | MIC ([1]; 12 h incubation, C. albicans 1051608): 110 µg/mL (≈ 119 µM) | MIC ([1]; 12 h incubation, C. albicans ATCC 10231): 110 µg/mL (≈ 119 µM) | MIC ([1]; 12 h incubation, C. albicans M0824): 30 µg/mL (≈ 32.5 µM) | MIC ([1]; 12 h incubation, C. albicans M0825): 30 µg/mL (≈ 32.5 µM) | MIC ([1]; 12 h incubation, C. albicans M0826): 60 µg/mL (≈ 64.9 µM) | MIC ([1]; 24 h incubation, C. albicans 1051255): 230 µg/mL (≈ 249 µM) | MIC ([1]; 24 h incubation, C. albicans 1051604): 60 µg/mL (≈ 64.9 µM) | MIC ([1]; 24 h incubation, C. albicans 1051608): 110 µg/mL (≈ 119 µM) | MIC ([1]; 24 h incubation, C. albicans ATCC 10231): 110 µg/mL (≈ 119 µM) | MIC ([1]; 24 h incubation, C. albicans M0824): 110 µg/mL (≈ 119 µM) | MIC ([1]; 24 h incubation, C. albicans M0825): 60 µg/mL (≈ 64.9 µM) | MIC ([1]; 24 h incubation, C. albicans M0826): 110 µg/mL (≈ 119 µM) | MIC ([1]; C. albicans ATCC 10231, mean value): 110 µg/mL (≈ 119 µM) | MIC ([1]; C. albicans clinical isolate 1051255, mean value): 30 µg/mL (≈ 32.5 µM) | MIC ([1]; C. albicans clinical isolate 1051604, mean value): 60 µg/mL (≈ 64.9 µM) | MIC ([1]; C. albicans clinical isolate 1051608, mean value): 110 µg/mL (≈ 119 µM) | MIC ([1]; C. albicans clinical isolate M0824, mean value): 30 µg/mL (≈ 32.5 µM) | MIC ([1]; C. albicans clinical isolate M0825, mean value): 30 µg/mL (≈ 32.5 µM) | MIC ([1]; C. albicans clinical isolate M0826, mean value): 60 µg/mL (≈ 64.9 µM)

C=C(C)[C@@H]1CC[C@]2(C)CC[C@]3(C)[C@H](CC[C@@H]4[C@@]5(C)CC[C@H](O)C(C)(C)[C@@H]5CC[C@]43C)[C@@H]12 [Compound 1.1, Lupeol]
CC50 at 5 days (in vitro; mouse fibroblast cells, MTT, 5 days): 0.00148 µg/mL (≈ 0.00347 µM) | MIC (Shai et al., 2008) (Microsporum canis): 16 µg/mL (≈ 37.5 µM) | MIC (Mathabe et al., 2008) [5]: > 200 µg/mL | MIC [1, 7]: 4 µg/mL (≈ 9.37 µM) | MIC (Shai et al., 2008) (Sporothrix schenckii): 12 µg/mL (≈ 28.1 µM) | MIC (Shai et al., 2008) (Enterococcus feacalis): 63 µg/mL (≈ 148 µM) | cytotoxic LC50 (Shai et al., 2008) [6]: 89.5 µg/mL | MIC (Shai et al., 2008) (Candida albicans): 250 µg/mL (≈ 586 µM)
